In US20020013306A1, “TERPYRIDINE-PLATINUM(II) COMPLEXES” (priority 1996, published 2002):
Where “and” joins values, the source holds several entries; their conditions need not be identical. Equal values may be shown once. Read-outs that look alike come from different tables or passages of the source.

Tests used:
[1] = Acid/base stability by NMR; conditions: diethylamine in deuterated chloroform; directly afterwards and after 20 hours
Method: Diethylamine (2 ml) was added to a solution of 4′-aziridinoterpyridine (5 mg) in deuterated chloroform in a NMR tube.
NMR spectra were recorded immediately and after 1, 2, 4 and 24 hours.

[2] = tested on: CH1 human ovarian carcinoma cell line; test: 96 h growth inhibition, sulforhodamine B assay, CH1; assay type: cell-based; conditions: 96 h exposure, v = variable (mean)
[3] = tested on: CH1cis^R human ovarian carcinoma cell line (cisplatin resistant); test: 96 h growth inhibition, sulforhodamine B assay, CH1cisR; assay type: cell-based; conditions: for IC50: 96 h exposure, growth inhibition, v = variable (mean); for RF resistance factor: IC50 resistant line/IC50 parent line: CH1cis^R / CH1
[4] = tested on: CH1dox^R human ovarian carcinoma cell line (doxorubicin resistant); test: 96 h growth inhibition, sulforhodamine B assay, CH1doxR; assay type: cell-based; conditions: for IC50: 96 h exposure, growth inhibition; for RF resistance factor: IC50 resistant line/IC50 parent line: CH1dox^R / CH1
[5] = tested on: A2780 human ovarian carcinoma cell line; test: 96 h growth inhibition, sulforhodamine B assay, A2780; assay type: cell-based; conditions: 96 h exposure, v = variable (mean)
[6] = tested on: A2780cis^R human ovarian carcinoma cell line (cisplatin resistant); test: 96 h growth inhibition, sulforhodamine B assay, A2780cisR; assay type: cell-based; conditions: for IC50: 96 h exposure, growth inhibition, v = variable (mean); for RF resistance factor: IC50 resistant line/IC50 parent line: A2780cis^R / A2780
[7] = tested on: SKOV3 human ovarian carcinoma cell line; test: 96 h growth inhibition, sulforhodamine B assay, SKOV3; assay type: cell-based; conditions: 96 h exposure, v = variable (mean)
T. cruzi (MHOM/BR/00/Y) = test: Trypanosoma cruzi in mouse peritoneal macrophages; assay type: cell-based
Method: Trypanosoma cruzi: […] Drug activity was determined from the % of infected macrophages in treated cultures. Nifurtimox was used as the positive control.

[8] = tested on: T. brucei (S427) bloodstream trypomastigotes; test: Trypanosoma brucei bloodstream trypomastigote culture; assay type: cell-based
polyfd(A-T)2) = test: Circular dichroism equilibrium binding
From the text: (§1) The double positive charge on 4-picoline-2,2′:6′,2″-terpyridine-platinum(II), together with the intercalative binding mode is probably responsible for the large binding constant.

DNA [9] = test: Ligation assay (DNA unwinding); assay type: binding
From the text: as §1

DNA [10] = test: Fluorescence spectroscopy, ethidium bromide displacement; assay type: binding
From the text: as §1

[11] = tested on: CHl human ovarian carcinoma subcutaneously implanted xenograph; test: CH1 human ovarian carcinoma xenograft in vivo
Method: In view of the in vitro results, compound (A) was investigated in vivo using the CHl human ovarian carcinoma subcutaneously implanted xenograph. The compound was administered intraperitoneally at weekly intervals for 4 weeks. Two dose levels were used; 30 and 60 mg/kg. Tumours were approximately 6-8 mm maximum diameter at the beginning of treatment. […] Two endpoints were determined, the 28 day T/C (the ratio of Treated versus Control volumes at day 28 post initial treatment) and the growth delay (GD: the difference in time taken for Treated versus Control groups to double in volume).
At the lower dose there was a growth delay (GD) 83.1. […] It seems likely that by using a still lower and more frequent drug schedule (e.g. daily) greater control over tumour growth could be achieved.

[12] = Single intraperitoneal injection toxicity in tumour-bearing mice (ADJ/PC6); assay type: in vivo
Method: Compound (A) was also administered as a single intraperitoneal injection in water to mice bearing subcutaneously implanted tumours e.g. ADJ/PC6 (according to the standard protocol for evaluating platinum complexes).

calf-thymus (ct)-DNA = conditions: literature [1]-[3]; cited from earlier work
[13] = tested on: P falciparum (chloroquin resistant strain K1); test: In vitro antimalarial activity, chloroquine resistant K1; conditions: for % Inhibition (compound duplicates), K1 P. falciparum: duplicates (1),(2)
Method: Plasmodium falciparum: P falciparum (chloroquin resistant strain K1) was cultured at 37° C. in a 5% suspension of infected so erythrocytes (group A Rh^+) in complete medium as described by E L Elueze, S L Croft and D C Warhurst, J Antimicrobial Chemotherapy, 1996, 37, 511-518. The in vitro antimalarial activity of compounds were likewise determined according to their protocol. Mefloquin was used as the positive control.”

[14] = deuterated water; NMR immediately, 1, 2, 17 hours, one and two weeks
Method: A solution of (4-picoline) (4′-aziridinoterpyridine) platinum (II) tetrafluoroborate in deuterated water was prepared. NMR spectra were recorded immediately, after 1, 2 and 17 hours, then after one and two weeks.

Molecule | IC50 [2] | IC50 [3] | RF resistance factor: IC50 resistant line/IC50 parent line [3] | IC50 [4] | RF resistance factor: IC50 resistant line/IC50 parent line [4] | IC50 [5] | IC50 [6] | IC50 [7] | % Inhibition, Trypanosoma cruzi (T. cruzi (MHOM/BR/00/Y); 30 μM) | % Inhibition, Trypanosoma brucei ([8]; 0.1 μM) | % Inhibition, Trypanosoma brucei ([8]; 0.3 μM) | % Inhibition, Trypanosoma brucei ([8]; 1 μM) | % Inhibition, Trypanosoma brucei ([8]; 3 μM) | % Inhibition, Trypanosoma brucei ([8]; 10 μM) | % Inhibition, Trypanosoma brucei ([8]; 30 μM) | RF resistance factor: IC50 resistant line/IC50 parent line [6] | % Inhibition, Trypanosoma cruzi (T. cruzi (MHOM/BR/00/Y); 1 μM) | % Inhibition, Trypanosoma cruzi (T. cruzi (MHOM/BR/00/Y); 3 μM) | % Inhibition, Trypanosoma cruzi (T. cruzi (MHOM/BR/00/Y); 10 μM) | binding association constant with ct-DNA (calf-thymus (ct)-DNA) | other results
c1ccc(-c2cc(N3CC3)cc(-c3ccccn3)n2)nc1 [4′-aziridinoterpyridine, 4′-Aziridino-2,2′:6′,2″-Terpyridine] | – | – | – | – | – | – | – | – | – | – | – | – | – | – | – | – | – | – | – | – | stability to base [1]: No change in the NMR spectrum
Cc1ccncc1.F[B-](F)(F)F.F[B-](F)(F)F.[Pt+2].c1ccc(-c2cccc(-c3ccccn3)n2)nc1 [A, 4-picoline-2,2′:6′:2″-terpyridine-platinum(II) tetrafluoroborate] | 14 µM | 11 µM | 0.8 | 4.4 µM | 0.3 | 17 µM | > 100 µM | 20 µM | 100% | 100% | 100% | 100% | 100% | 100% | 100% | – | – | – | – | – | % Inhibition, Trypanosoma brucei ([8]; 0.03 μM): 83.3%; equilibrium binding constant, second binding mode (polyfd(A-T)2); site size of about 2 base pairs): about 1×10^6 M^−1; equilibrium binding constant, most stable binding mode (polyfd(A-T)2); site size of about 4 base pairs): approximately 2×10^7 M^−1; DNA unwinding / intercalation in ligation assay (DNA [9]): unwind and so intercalate into DNA; displacement of ethidium bromide bound to DNA (DNA [10]): displaces ethidium bromide bound to DNA; growth delay (GD) ([11]; 30 mg/kg (lower dose) intraperitoneally, weekly for 4 weeks): 83.1; local peritoneal organ damage ([11]; 60 mg/kg (higher dose) i.p. weekly for 4 weeks): evidence, of local peritoneal organ damage; deaths due to drug toxicity ([11]; 30 and 60 mg/kg i.p. weekly for 4 weeks): no deaths due to drug toxicity; effect on tumour growth (Relative Tumour Volume) ([11]; 30 and 60 mg/kg i.p. weekly for 4 weeks, especially at the lower dose): induces a growth inhibitory effect; toxicity, single intraperitoneal injection ([12]; 50 mg/kg in water): no toxic affect; toxicity, single intraperitoneal injection ([12]; 100 mg/kg in water): toxic; LD50 ([12]; single intraperitoneal injection): approximately 70 mg/kg
[Cl-].[Cl-].[Pt+2].c1ccc(-c2cccc(-c3ccccn3)n2)nc1 [Compound A13, chloro(2,2′:6′,2″-terpyridine)platinum(II) chloride] | 6.6 µM | 6.4 µM | 1 | 3.75 µM | 0.6 | 49 µM | 41 µM | 19.5 µM | 99.3% | 26.2% | 100% | 100% | 100% | 100% | 100% | 0.8 | 52.0% | 76.0% | 99.0% | essentially the same binding constant | –
Cc1cc[n+]([Pt-2]23[n+]4ccccc4-c4cc(Cl)cc([n+]42)-c2cccc[n+]23)cc1.F[B-](F)(F)F.F[B-](F)(F)F [I] | 6.35 µM | 6.4 µM | 1 | 0.425 µM | 0.07 | 14.5 µM | 14.5 µM | 5.6 µM | 100% | 99.2% | 83.8% | 100% | 100% | 100% | 100% | 1 | 59.7% | 73.5% | 97.0% | – | % Inhibition (compound duplicates), K1 P. falciparum ([13]; Concn. 15 μM): 14.2% and 9.4%; % Inhibition (compound duplicates), K1 P. falciparum ([13]; Concn. 30 μM): 93.2% and 90.9%; % Inhibition (compound duplicates), K1 P. falciparum ([13]; Concn. 75 μM): 1.9% and 2.1%; % Inhibition (compound duplicates), K1 P. falciparum ([13]; Concn. 375 μM): 0%; % Inhibition (compound duplicates), K1 P. falciparum ([13]; Concn. 1875 μM): 0%; % Inhibition (compound duplicates), K1 P. falciparum ([13]; Concn. 09375 μM): 0%; % Inhibition (compound duplicates), K1 P. falciparum ([13]; Concn. 046875 μM): 0%; % Inhibition (compound duplicates), K1 P. falciparum ([13]; Concn. 0234375 μM): 0%; IC50 ([13]; read-out: IC50 (avg), K1 P. falciparum, average of duplicates): 20.6 µM; IC50 ([13]; read-out: IC50, K1 P. falciparum, each duplicate (1),(2)): 19.9 µM and 21.2 µM
Cc1ccncc1.F[B-](F)(F)F.F[B-](F)(F)F.[Pt+2].c1ccc(-c2cc(N3CC3)cc(-c3ccccn3)n2)nc1 [T, (4-Picoline)(4′-Aziridino-2,2′:6′,2″-Terpyridine) Platinum (II) Tetra-fluoroborate] | 4.6 µM | 3.7 µM | – | 4.2 µM | – | 7.7 µM | 20 µM | 19 µM | 0% | 54.2% | 78.9% | 100% | 100% | 100% | 100% | – | 0% | 0% | 0% | – | stability in aqueous solution [14]: stable to nucleophilic attack by water under neutral conditions
hydroxyethanethiol-2,2′:6′,2″-terpyridine-platinum(II) [1,R═SCH2CH2OH, reference compound] | – | – | – | – | – | – | – | – | – | – | – | – | – | – | – | – | – | – | – | 83000 M⁻¹ | –
